Source: patent US6344203B1, “Mimicking peptides in cancer therapy” (The Austin Research Institute, priority 1995, dated 2002)
Read-outs that look alike come from different tables or passages of the source. No end group written: not given here.

Legend:
IB4 lectin [1] = target: T1, IB4 lectin (Griffonia simplicifolia, UniProt Q8W1R6); test: Elisa: inhibition of IB4 lectin binding to Galα(1,3)Gal-BSA; conditions: for Inhibition of IB4 lectin binding to Galα(1,3)Gal-BSA (in words) / Inhibition of binding of IB4 to Galα(1,3)Gal-BSA: Elisa; for Inhibition of IB4 lectin binding to Galα(1,3)Gal-BSA (in words): varying concentrations of inhibitor; for Inhibition of binding of IB4 to Galα(1,3)Gal-BSA: peptide concentration 5 mM (FIG. 8a)
T1 sequence (Q8W1R6 1-247): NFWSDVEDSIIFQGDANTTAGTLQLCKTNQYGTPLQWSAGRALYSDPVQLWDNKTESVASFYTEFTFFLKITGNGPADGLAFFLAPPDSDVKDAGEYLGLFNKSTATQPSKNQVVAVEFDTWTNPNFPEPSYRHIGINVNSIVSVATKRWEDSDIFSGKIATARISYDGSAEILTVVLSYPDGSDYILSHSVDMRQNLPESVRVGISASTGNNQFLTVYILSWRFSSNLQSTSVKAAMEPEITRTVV
Procedure: (§1) 50 μl of either purified anti-Galα(1,3)Ga IgG or biotinylated IB4 lectin was added to the wells, incubated for 45 minutes at 22° C., washed with PBS-0.05% Tween 20, and 50 μl of the relevant IIRP conjugate added and incubated for a further 45 minutes before washing and the addition of 50 μl of substrate (2,2′ Azino-di-B-ethylbenzthiozoline (Zymed, San Francisco, Calif.)) and reading the OD405.
(§2) An Elisa was established to calculate the relative “affinity” of the Gal pep 1 (SEQ ID No. 1) for the IB4 lectin and for human anti-Galα(1,3)Gal antibodies, and to compare these with the affinities for α-galactosyl sugars.
(§3) Peptides or carbohydrates were examined cytofluorographically for their ability to inhibit antibody/lectin binding to the cell surface using a FACSCAN flow cytometer (Becton Dickinson, USA)[20]: 25 μl of inhibitor was mixed with 25 μl of antibody of lectin and incubated at 22° C. for 3 hours (peptides) or at 4° C. for 16 hours (carbohydrates)[14], prior to addition of appropriate targets. An Elisa assay was used to calculate the relative affinities of the sugars or the peptides for both IB4 lectin and antibodies, and were defined as the molar concentration of inhibitor giving 50% inhibition of the maximal binding of lectin or antibody.

[2] = tested on: human anti-Galα(1,3)Gal IgG antibodies; test: Elisa: inhibition of anti-Galα(1,3)Gal IgG binding to Galα(1,3)Gal-BSA; conditions: for Inhibition of anti-Galα(1,3)Gal IgG binding to Galα(1,3)Gal-BSA (in words) / Inhibition of binding of anti-Galα(1,3)Gal IgG to Galα(1,3)Gal-BSA: Elisa; for Inhibition of anti-Galα(1,3)Gal IgG binding to Galα(1,3)Gal-BSA (in words): varying concentrations of inhibitor; for Inhibition of binding of anti-Galα(1,3)Gal IgG to Galα(1,3)Gal-BSA: peptides at 5 mM (FIG. 8b)
Procedure: as §1, §2, §3

IB4 lectin [3] = target: T1, IB4 lectin; test: Cytofluorographic inhibition of IB4 lectin binding to PIEC cells; format: cell-based
Procedure: FIGS. 3(A-C). […] (A); Staining of PIEC cells with IB4 lectin (1 μg/ml). (B) Staining of PIEC cells with NHS (final dilution of 1/50) and anti-human Ig. (C) Staining of PBL with IB4 lectin (μg/ml). Peptides were used at 5 mM (A and C) or at 20 mM (B). In each panel profile “a” represents binding in the presence of Gal pep 1 (SEQ ID No. 1), and profile “b” the binding in the presence of CD48 pep 1 (SEQ ID No. 11).
FIGS. 6(A-B). […] Varying concentrations of peptides (shown in mM on horizontal axis) were explained for ability to inhibit the binding of IB4 lectin (1 μg/ml) to tie PIEC cells using cytofluorographic analysis. (a) Gal pep 1 (SEQ ID No. 1) (□), Muc pep 1 (SEQ ID No. 15) (∘).
FIG. 7. […] All peptides used at 5 mM, using cytofluorograhic analysis. Inhibition calculated relative to no peptide control.
(§4) The binding of lectin or antibody to the surface of pig cells was detected by hemagglutination, cytotoxicity or flow cytometry using the FACSCAN flow cytometer (Becton Dickinson, Mountain View, Calif.).
as §3

PIEC cells = test: Inhibition of cytotoxicity of NHS and complement on PIEC; format: cell-based, pig; conditions: peptide 10 mM to 2.5 mM, NHS 1/25
Text: FIG. 4. Inhibition of cytotoxicity due to natural antibody and complement by Gal pep 1 (SEQ ID No. 1). Varying concentrations of Gal pep 1 (∘) or CD48 pep 1 (♦) (shown in mM on horizontal axis) were examined in a cytotoxicity assay using NHS (final dilution of 1/25) and PEEC cells as targets.
as §4
Human cytotoxic antibodies directly damage pig endothelial cells in a pig-to-human xenograft, therefore the ability of Gal pep 1 (SEQ ID No. 1) to inhibit the cytotoxicity of human antibodies on PIEC in vitro was tested; Gal pep 1 inhibited the cytotoxicity of NHS (10 mM to 2.5 mM), whereas CD48 pep 1 (SEQ ID No. 11) had no effect (FIG. 4).

[4] = target: purified human anti-Galα(1,3)Gal IgG antibodies (human); test: competition ELISA (I50): peptide inhibits anti-Galα(1,3)Gal IgG binding to Galα(1,3)Gal-BSA
[5] = target: IB4 lectin from Griffonia simplicifolia (Griffonia simplicifolia); test: competition ELISA (I50): peptide inhibits biotinylated IB4 binding to Galα(1,3)Gal-BSA
[6] = target: IB4 lectin from Griffonia simplicifolia (Griffonia simplicifolia); test: flow cytometry, IB4 (1 µg/ml) on PIEC cells
[7] = target: IB4 lectin from Griffonia simplicifolia (Griffonia simplicifolia); test: flow cytometry, IB4 on pig PBL
[8] = target: BC1 anti-MUC1 monoclonal antibody; test: flow cytometry, competition with MUC1 on MUC1+3T3 (MOR5) cells
[9] = target: IB4 lectin from Griffonia simplicifolia (Griffonia simplicifolia); test: inhibition of IB4 reaction with galactomannan (not shown)
[10] = target: human natural antibodies in normal human serum (NHS) (human); test: cell-based or functional assay
[11] = target: human natural antibodies in normal human serum (NHS) (human); test: flow cytometry, NHS (1/50) natural antibodies on PIEC cells; no inhibition at lower concentrations
[12] = Table 1, anti-Galα(1,3)Gal IgG 87 μg/ml, concentration giving 50% inhibition of binding, read-out: I50 anti-Galα(1,3)Gal IgG
[13] = Table 3, anti-Galα(1,3)Gal antibody (IgG) 87 μgs/ml, read-out: I50 Anti-Galα(1,3)Gal
[14] = varying peptide concentrations (FIG. 6b)

Molecule: OCC1OC(OC2C(O)C(O)OC(CO)C2O)C(O)C(O)C1O (stereo not drawn) [Galα(1,3)Gal]
- Inhibition of IB4 lectin binding to Galα(1,3)Gal-BSA (in words) (IB4 lectin [1]): inhibited
- IC50 (IB4 lectin [1]; Table 1, biotinylated IB4 lectin […], concentration giving 50% inhibition of binding, read-out: I50 IB4): < 30 µM
- IC50 (IB4 lectin [1]; read-out: I50 IB4): < 30 µM
- Inhibition of anti-Galα(1,3)Gal IgG binding to Galα(1,3)Gal-BSA (in words) [2]: inhibited
- IC50 [2, 12]: 30 µM
- IC50 [2, 13]: 30 µM

Molecule: OCC1OC(OCC2OC(O)C(O)C(O)C2O)C(O)C(O)C1O (stereo not drawn) [Melibiose, Galα(1,6)Glc]
- Inhibition of IB4 lectin binding to Galα(1,3)Gal-BSA (in words) (IB4 lectin [1]): inhibited
- IC50 (IB4 lectin [1]; read-out: I50 IB4): 300 µM
- Inhibition of anti-Galα(1,3)Gal IgG binding to Galα(1,3)Gal-BSA (in words) [2]: inhibited
- IC50 [2, 12]: 125 to 300 µM

Molecule: CC(C)[C@H](NC(=O)[C@H](CO)NC(=O)[C@H](CO)NC(=O)[C@H](CCCNC(=N)N)NC(=O)[C@H](CCC(N)=O)NC(=O)[C@@H](NC(=O)[C@H](C)NC(=O)[C@H](CO)NC(=O)[C@@H](NC(=O)[C@H](CCC(=O)O)NC(=O)[C@H](CCCCN)NC(=O)[C@H](CCC(=O)O)NC(=O)CNC(=O)CNC(=O)[C@@H]1CCCN1C(=O)[C@@H](NC(=O)[C@H](CO)NC(=O)[C@H](CO)NC(=O)[C@H](C)NC(=O)[C@H](Cc1c[nH]cn1)NC(=O)CNC(=O)[C@H](CO)NC(=O)CNC(=O)[C@@H](N)[C@@H](C)O)[C@@H](C)O)[C@@H](C)O)[C@@H](C)O)C(=O)N1CCC[C@H]1C(=O)O [Muc pep 6]
- Inhibition of binding of IB4 to Galα(1,3)Gal-BSA (IB4 lectin [1]): complete inhibition
- Inhibition of IB4 lectin binding to PIEC cells (IB4 lectin [3]; peptides at 5 mM (FIG. 7)): partial inhibition

Molecule: APDTRPAPGSTAPPAH [Muc pep 4]
- Inhibition of binding of IB4 to Galα(1,3)Gal-BSA (IB4 lectin [1]): complete inhibition
- Inhibition of binding of anti-Galα(1,3)Gal IgG to Galα(1,3)Gal-BSA [2]: partial inhibition
- IC50 [2, 13]: 5000 µM
- Inhibition of IB4 lectin binding to PIEC cells (IB4 lectin [3]; [14]): partial inhibition

Molecule: CHSTPSFTSSITTTETTS [Muc pep 10, human Muc3 VNTR]
- Inhibition of IB4 lectin binding to PIEC cells (IB4 lectin [3]; peptides at 5 mM (FIG. 7)): inhibited

Molecule: CPAHGVTSAPDTRPAPGSTAP [Muc pep 1]
- Inhibition of binding of IB4 to Galα(1,3)Gal-BSA (IB4 lectin [1]): complete inhibition
- Inhibition of binding of anti-Galα(1,3)Gal IgG to Galα(1,3)Gal-BSA [2]: inhibited
- IC50 [2, 13]: 2500 µM
- Inhibition of IB4 lectin binding to PIEC cells (IB4 lectin [3]; to a peptide concentration of 0.125 mM (FIG. 6a)): almost complete inhibition

Molecule: KYPTTTPISTTTMVTPTPTPTGTQTPTTT [Muc pep 9, human Muc2 VNTR]
- Inhibition of binding of IB4 to Galα(1,3)Gal-BSA (IB4 lectin [1]): no inhibition
- Inhibition of IB4 lectin binding to PIEC cells (IB4 lectin [3]; peptides at 5 mM (FIG. 7)): did not inhibit

Molecule: LSGVRFSAARTAHPLPQKH [TNF pep 1, control peptide, MURINE TNFβ]
- Inhibition of binding of IB4 to Galα(1,3)Gal-BSA (IB4 lectin [1]): did not inhibit

Molecule: PAPGSTAPPAHGVTSA [Muc pep 5]
- Inhibition of binding of IB4 to Galα(1,3)Gal-BSA (IB4 lectin [1]): complete inhibition
- Inhibition of IB4 lectin binding to PIEC cells (IB4 lectin [3]; [14]): partial inhibition

Molecule: RSSVPSSTEKNAVSMTSSVL [Muc pep 7, human Muc1 NH2 to VNTR]
- Inhibition of binding of IB4 to Galα(1,3)Gal-BSA (IB4 lectin [1]): no inhibition
- Inhibition of IB4 lectin binding to PIEC cells (IB4 lectin [3]; peptides at 5 mM (FIG. 7)): did not

Molecule: RYHHYSSNFSIPKANHSHSGDYYCKGSL [FcR pep 1, control peptide, MURINE FCRIIβ2]
- Inhibition of binding of anti-Galα(1,3)Gal IgG to Galα(1,3)Gal-BSA [2]: had no effect

Molecule: TECKHKKGKVVSGKVLSY [CD4 pep 1, control peptide, murine CD4]
- Inhibition of binding of IB4 to Galα(1,3)Gal-BSA (IB4 lectin [1]): did not inhibit
- Inhibition of binding of anti-Galα(1,3)Gal IgG to Galα(1,3)Gal-BSA [2]: had no effect

Molecule: TGFNQYKTEAASRVNL [Muc pep 8, human Muc1 COOH to VNTR]
- Inhibition of IB4 lectin binding to PIEC cells (IB4 lectin [3]; peptides at 5 mM (FIG. 7)): inhibited

Molecule: TSSASTGHATPLPVTP [Muc pep 11]
- Inhibition of binding of IB4 to Galα(1,3)Gal-BSA (IB4 lectin [1]): complete inhibition
- Inhibition of binding of anti-Galα(1,3)Gal IgG to Galα(1,3)Gal-BSA [2]: inhibited
- IC50 [2, 13]: 2500 µM
- Inhibition of IB4 lectin binding to PIEC cells (IB4 lectin [3]; peptides at 5 mM (FIG. 7)): inhibited

Molecule: WEADLHWS [Scram pep 1]
- IC50 [2, 13]: > 20000 µM

Molecule: YTFDQKIVEWDSRKSKC [CD48 pep 1]
- IC50 (IB4 lectin [1]): > 20000 µM
- IC50 (IB4 lectin [1]; read-out: I50 IB4, Table 3, biotinylated IB4 lectin 6.25 μgs/ml): > 20000 µM
- Inhibition of cytotoxicity of NHS on PIEC (PIEC cells): had no effect

Molecule: CPAHGVTSAPDTRPAPGSTAP [Muc pep 1]
- IC50 [4]: 2500 µM
- IC50 [5]: 78 µM
- concentration down to which inhibition was almost complete [6]: 0.125 mM

Molecule: YTFDQKIVEWDSRKSKC [CD48 pep 1]
- IC50 [4]: > 20000 µM
- IC50 [5]: > 20000 µM

Molecule: TGSGHASSTPGGEKETSAQRSSVP [Muc pep 6]
- IC50 [5]: 1250 µM

Molecule: TSSASTGHATPLPVTP [Muc pep 11]
- IC50 [4]: 2500 µM
- IC50 [5]: 156 µM

Molecule: WEADLHWS [Scram pep 1]
- IC50 [4]: > 20000 µM
- IC50 [5]: > 20000 µM

Molecule: DAHWESWL [Gal pep 1 (DAHWESWL), synthetic peptide]
- IC50 [4]: 10000 µM
- peptide concentration that blocked IB4 binding to PBL [7]: 5 mM
- lowest peptide concentration that inhibited BC1 binding to MUC1+3T3 cells [8]: 0.156 mM
- IC50 [9]: 5000 µM
- blocking of hemagglutination of pig RBC by NHS [10]: 5 mM
- IC50 [5]: 300 µM
- peptide concentration at which inhibition occurred [11]: 20 mM
